# Publication PMC8819291, “Adaptively evolved human oral actinomyces‐sourced defensins show therapeutic potential” (EMBO Molecular Medicine, 2021)
# Read-outs that look alike come from different tables or passages of the source. Where a SMILES comes first, the peptide text is derived from it. Bridges are numbered along the chain shown (N, C = ends).
# Assays:
# [1] = system: Methicillin‐resistant coagulase negative Staphylococci P1369; test: Inhibition-zone assay (lethal concentration); format: cell-based, Staphylococcus; conditions: Broth Medium, 37°C
# Description: (§1) Bacterial media used here included: Luria‐Bertani (LB) medium, THY medium (30 g Todd Hewitt broth and 5 g Yeast extract per liter), and tryptic soy broth (TSB) (Oxoid, Basingstoke, UK); Broth medium and brain–heart infusion (BHI) medium (Beijing Landbridge technology Limited by Share Ltd., Beijing, China); Potato dextrose (PD) medium (self‐prepared).
# (§2) In brief, an overnight bacterial culture from a single colony was inoculated into fresh medium and grew to late log‐phase. A 10‐μl aliquot of each culture was diluted in 6‐ml pre‐heated medium containing 0.8% agar. The mixture was spread on a 9‐cm Petri dish, giving a depth of 1 mm. After settling, 3‐mm wells were punched in the plate and then 2‐μl peptide samples of different concentrations were added to each well. The agar plates were incubated overnight at indicated temperatures (Table EV4). A lethal concentration (C L ) was calculated from a plot of d^2 against log n, where d is the diameter (in cm) and n is the amount of sample applied in the well (in nmol). The plot is linear, and thus C L can be calculated from the slope (k) and the intercept (m) of this plot.
# HEK 293 = conditions: 25 µM (Appendix Fig S14), 72 h, CCK‐8
# Description: Cells were cultured at 37°C in 5% CO2: 95% air incubator in Minimum Essential Medium (MEM) supplemented with 10% (v/v) fetal bovine serum (FBS). Cells were seeded at a density of 7 × 10^3 cells per well in 96‐well plates and incubated for 24 h. Media were then replaced with 200 μl of media containing various concentrations of peptides. The cells were incubated for 72 h and cytotoxicity was assessed with CCK‐8 Kits (Dojindo Molecular Technologies, Tokyo, Japan). Absorbance was detected at 450 nm with the TECAN Infinite M200 microplate reader (Tecan, Durham, USA).
# HL‐60 cells = test: Peptide-induced MCP-1 release (ELISA); format: cell-based, human; conditions: 24 h
# Description: A549 and HL‐60 cells were purchased from the Cell Resource Center of the Chinese Academy of Medical Sciences (Beijing, China). They were tested for mycoplasma contamination with the Mycoplasma Detection Kit (Solarbio, China) and only negative cultures were used in our experiments. The cells were cultured in complete Dulbecco’s Modified Eagle Medium (DMEM) supplemented with 10% fetal bovine serum (FBS), penicillin (100 units/ml), and streptomycin ([…]) at 37°C in 5% CO2. The culture medium was changed every 2 days. Cells were passaged every 4–5 days with 0.25% trypsin (Gibco, USA). For enzyme‐linked immunosorbent assay (ELISA) (Hara et al, [2008]), A549 or HL‐60 cells were seeded in six‐well plates at a density of 1 × 10^5 cells/well and were incubated at 37°C in 5% CO2 overnight. Medium was aspirated and replaced with fresh complete DMEM supplemented with 10% FBS or serum‐free medium, both containing different concentrations of polypeptides for 24 h. Then, the supernatants were harvested for quantification of the IL‐8 amount in A549 by the Human CXCL8/IL‐8 Quantikine ELISA Kit (R&D Systems Inc., Minneapolis, MN, USA) and the MCP‐1 amount in HL‐60 by the Human MCP‐1 ELISA Kit (Boster Biological Technology Co., Ltd, Wuhan, China) as per the manufactures’ instructions.
# [2] = Stability in H2O (residual activity by inhibition-zone assay); format: physicochemical; conditions: 48‐h incubation in H2O at 37°C
# SM membrane = test: Membrane permeability assay (propidium iodide); format: cell-based, Streptococcus mutans; conditions: 10 × C L; 5 × 10^5 cells in PBS pH 7.3, 1 μM PI
# Description: Fluorescence was measured with the F‐4500 FL spectrophotometer (Hitachi High‐Technology Company, Japan).
# MRSA P1374 = test: Cytoplasmic accumulation of UMP; format: cell-based, Staphylococcus aureus; conditions: 20 × C L, 30 min; RP-HPLC, UV 260 nm
# Description: To analyze the cytoplasmic nucleotide pool, we carried out the cytoplasmic UMP accumulation experiment according to the literature (Brötz et al, [1997]) with some modifications. MRSA P1374 cells were grown in 40‐ml broth medium at 37°C to an OD600 of 0.5. The culture was supplemented with 130 μg/ml chloramphenicol. […] After 30 min of incubation, UMP was extracted from the harvested cells by stirring them into boiling water. The suspension was then centrifuged (43,000 g, 60 min) at 4°C and the supernatant was lyophilized and dissolved in 400 μl of 50 mM ammonium acetate (pH 5.2) and adjusted to pH 2.0 with acetic acid. After acidification, the supernatant was fractionated by RP‐HPLC on Hypersil ODS (250 × 4.6 mm; Thermo Scientific) and UMP was eluted from the column with a linear gradient from 0 to 40% methanol in 50 mM NH4Ac (pH 5.2) within 40 min with a flow rate of 1 ml/min. UV absorbance was monitored at 260 nm. UMP was identified by ultraperformance liquid chromatography–high resolution mass spectrometry (UPLC‐HRMS) and MALDI‐TOF. Both methods yielded consistent results.
# [3] = system: Streptococcus sanguinis CGMCC 1.2497 (ATCC 49295); test: Inhibition-zone assay (lethal concentration); format: cell-based; conditions: Broth Medium, 37°C
# Description: as §1, §2
# [4] = system: penicillin‐resistant Staphylococcus epidermidis P1389; test: Inhibition-zone assay (lethal concentration); format: cell-based; conditions: Broth Medium, 37°C
# Description: as §1, §2
# [5] = system: Staphylococcus aureus J706; test: Inhibition-zone assay (lethal concentration); format: cell-based; conditions: Broth Medium, 37°C
# Description: as §1, §2
# [6] = system: Lysinibacillus fusiformis; test: Inhibition-zone assay (lethal concentration); format: cell-based; conditions: Broth Medium, 37°C
# Description: as §1, §2
# [7] = system: Streptomyces griseus NBRC 13350; test: Inhibition-zone assay (lethal concentration); format: cell-based; conditions: PD, 28°C
# Description: as §1, §2
# [8] = 10 μg i.p. once daily for 3 days, serum after 2 days, 1:100 diluted over AMSIN-immobilized CM5 chip
# Description: Firstly, three female ICR mice (25 g each mouse, 6 weeks of age) were injected intraperitoneally (i.p.) with 10‐μg protein dissolved in 0.9% NaCl once daily (OD) for 3 days. One female ICR mouse of 25 g (6 weeks of age) injected with 0.9% NaCl in the same manner was used as control. Blood samples were then collected from the mouse retro‐orbital plexus after 2 days. Sera were obtained by centrifugation and stored at –20°C until further use. […] In this process, bovine serum albumin (BSA) was added at a final concentration of 0.25 mg/ml to inhibit non‐specific binding. The amount of bound material, if any, was determined by measuring the increase in RUs.
# [9] = 37°C
smiles,measurement,setting,value
"CC[C@H](C)[C@@H]1NC(=O)[C@H](CCCCN)NC(=O)CNC(=O)[C@H](CCCNC(=N)N)NC(=O)[C@@H]2CSSC[C@H](NC(=O)CNC(=O)[C@H](Cc3ccccc3)NC(=O)CN)C(=O)N3CCC[C@H]3C(=O)N[C@@H](Cc3c[nH]c4ccccc34)C(=O)N[C@@H](CC(N)=O)C(=O)N[C@@H](C)C(=O)N[C@@H](Cc3ccc(O)cc3)C(=O)N[C@@H](CCC(=O)O)C(=O)N[C@H]3CSSC[C@H](NC(=O)[C@H]([C@@H](C)O)NC(=O)[C@H](CCC(N)=O)NC(=O)[C@H](CCCNC(=N)N)NC1=O)C(=O)N[C@@H](Cc1c[nH]cn1)C(=O)N[C@H](C(=O)N[C@@H](Cc1ccc(O)cc1)C(=O)O)CSSC[C@H](NC(=O)[C@H](Cc1c[nH]cn1)NC(=O)[C@H](CCCNC(=N)N)NC(=O)[C@H](CC(=O)O)NC3=O)C(=O)N[C@@H](C(C)C)C(=O)N[C@@H](CO)C(=O)N[C@@H](CCCCN)C(=O)NCC(=O)N[C@@H](Cc1ccc(O)cc1)C(=O)N[C@@H]([C@@H](C)O)C(=O)NCC(=O)NCC(=O)N[C@@H](CC(N)=O)C(=O)N2 [AMSIN] (H-GFGCPWNAYECDRHCVSKGYTGGNCRGKIRQTCHCY-OH; disulfide 4-25, 11-33, 15-35; N-terminus and C-terminus assumed)",Lethal concentration (C L),[1],1.07 µM
same,Viability of HEK 293,HEK 293,did not affect the viability
same,MCP-1,"HL‐60 cells; FBS-containing medium, 25 μg/mL, replicate 1",380 pg/mL
same,MCP-1,"HL‐60 cells; FBS-containing medium, 25 μg/mL, replicate 2",485 pg/mL
same,MCP-1,"HL‐60 cells; FBS-containing medium, 25 μg/mL, replicate 3",359 pg/mL
same,MCP-1,"HL‐60 cells; FBS-containing medium, 50 μg/mL, replicate 1",453 pg/mL
same,MCP-1,"HL‐60 cells; FBS-containing medium, 50 μg/mL, replicate 2",523 pg/mL
same,MCP-1,"HL‐60 cells; FBS-containing medium, 50 μg/mL, replicate 3",432 pg/mL
same,MCP-1,"HL‐60 cells; FBS-containing medium, 100 μg/mL, replicate 1",419 pg/mL
same,MCP-1,"HL‐60 cells; FBS-containing medium, 100 μg/mL, replicate 2",423 pg/mL
same,MCP-1,"HL‐60 cells; FBS-containing medium, 100 μg/mL, replicate 3",398 pg/mL
same,MCP-1,"HL‐60 cells; Serum-Free medium, 25 μg/mL, replicate 1",393 pg/mL
same,MCP-1,"HL‐60 cells; Serum-Free medium, 25 μg/mL, replicate 2",431 pg/mL
same,MCP-1,"HL‐60 cells; Serum-Free medium, 25 μg/mL, replicate 3",372 pg/mL
same,MCP-1,"HL‐60 cells; Serum-Free medium, 50 μg/mL, replicate 1",447 pg/mL
same,MCP-1,"HL‐60 cells; Serum-Free medium, 50 μg/mL, replicate 2",450 pg/mL
same,MCP-1,"HL‐60 cells; Serum-Free medium, 50 μg/mL, replicate 3",426 pg/mL
same,MCP-1,"HL‐60 cells; Serum-Free medium, 100 μg/mL, replicate 1",418 pg/mL
same,MCP-1,"HL‐60 cells; Serum-Free medium, 100 μg/mL, replicate 2",427 pg/mL
same,MCP-1,"HL‐60 cells; Serum-Free medium, 100 μg/mL, replicate 3",397 pg/mL
same,Residual antibacterial activity,[2],full antibacterial activity
same,Effect on bacterial membrane integrity (propidium iodide fluorescence),SM membrane,did not impair the integrity of bacterial membrane
same,Cytoplasmic accumulation of UMP,MRSA P1374,accumulated
same,Lethal concentration (C L),[3],1.41 µM
same,Lethal concentration (C L),[4],1.14 µM
same,Lethal concentration (C L),[5],5.20 µM
same,Lethal concentration (C L),[6],0.27 µM
same,Lethal concentration (C L),[7],2.89 µM
same,Anti-drug antibody in AMSIN-treated mouse serum,[8],no obvious anti‐drug antibody
same,Residual antibacterial activity,[9]; 24 h in fresh normal mouse serum without dilution,full antibacterial activity
same,Activity in serum compared with in H2O,"[9]; undiluted mouse serum, 48‐h study period",slight decrease
